Laboratory results as given in US7201899B2, “Materials and methods for management of hyperacute rejection in human xenotransplantation” (BresaGen Limited, priority 1994, dated 2007).

Test system: porcine cells (PAE's and PK1's)
Test: Complement-mediated lysis of porcine cells (51CR release and LDH release assays)
Format: cell-based
Details: effective sugar concentrations covered about 10 mM
Method: The ability of human serum to cause the lysis of porcine cells was examined using both pig epithelial (PK1) and aortic endothelial (PAE's) cells, the isolation and culture of which is described in Example 2. Cell lysis was determined using either the ^51Chromium release assay as described by Cerottini and Brunner, Nature New Biol. 237:272, 1972 or the Cytotox LDH release assay according to the manufacturer's instructions (Promega, USA).
A. ^51CR Release Assay • 1. Preparation of Cells: • a) Trypsinize a confluent flask of cells. On average, approximately 3×10^6 PAE's and approximately 3×10^7 PK1 cells are obtained per 10 ml flask. About 1×10^5 cells are required for each well in the 5CR Release Assay. • b) Wash cells […] in 10 ml RPMI (no FCS); spin 1200 rpm for 5 min. • c) Resuspend cells in 100 μl RPMI (with 10% heat-inactivated FCS; see below). • 2. […]

Structure (SMILES): O=C[C@H](O)[C@@H](O)[C@H](O)[C@H](O)CO[C@H]1O[C@H](CO)[C@H](O)[C@H](O)[C@H]1O [Melibiose, 6-O-α-D-galactopyranosyl-D-glucose]
- protection of porcine cells from complement-induced lysis: protects the porcine cells from lysis
